The text below walks through data of US12617756B2 (ABIVAX, priority 2019, dated 2026).

In general, EC50 refers to the concentration needed to bring the measured effect to its halfway point.

The assay deals with RSV A2. The assay can be described thus: Screening for RSV inhibition using Viral ToxGlo assay (cytopathic effect inhibition in HEp-2 cells). The class given is cell-based, Respiratory Syncytial Virus (RSV). To be noted: human respiratory syncytial virus; RSV A2 in HEp-2 cells, MOI 0.5, 72h p.i., cytopathic effect inhibition relative to virus control, Viral ToxGlo luminescence. Put shortly:
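HEp-2 cells in 2% FBS medium infected with RSV A2 right after compound addition (max 1% DMSO), uninfected wells used for cytotoxicity. After 72 h p.i. at 37 °C/5% CO2, cell viability read by Viral ToxGlo luminescence as measure of cytopathic effect.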
(In general: Damage to the host cells serves as the signal in cytopathic effect assays.)
For the compound `O=C(N=C1NCCN1)c1ccc(Nc2cccc(C(=O)NC3CC3)c2C(F)(F)F)c(C2CC2)c1` [Compound 116, 3-cyclopropyl-4-f{[3-(cyclopropylcarbamoyl)-2-(trifluoromethyl)phenyl]amino}-N—[imidazolidin-2-ylidene]benzamide], the EC50 was 131 nM.

In the case of `CC1(NC(=O)c2cccc(Nc3c(F)cc(C(=O)N=C4NCCN4)cc3C3CC3)c2)CC1` [Compound 117, 3-cyclopropyl-5-fluoro-N-[imidazolidin-2-ylidene]-4-({3-[(1-methylcyclopropyl)carbamoyl]phenyl}amino)benzamide], the EC50 amounted to 5.6 nM.

On to `O=C(N=C1NCCN1)c1ccc(Nc2cc(F)cc(C(=O)N3CCOCC3)c2Cl)c(C2CC2)c1` [Compound 118, 4-{[2-chloro-5-fluoro-3-(morpholine-4-carbonyl)phenyl]amino}-3-cyclopropyl-N-[imidazolidin-2-ylidene]benzamide], for which the EC50 came out at 27 nM.

Consider `O=C(N=C1NCCN1)c1cc(F)c(Nc2cccc(C(=O)N3CCOCC3)c2)c(C2CC2)c1` [Compound 119, 3-cyclopropyl-5-fluoro-N-[imidazolidin-2-ylidene]-4-{[3-(morpholine-4-carbonyl)phenyl]amino}benzamide], for which the EC50 is 108 nM.

Turning to `O=C(N=C1NCCN1)c1ccc(Nc2cccc(C(=O)N3C[C@@H]4C[C@H]3CO4)c2Cl)c(C2CC2)c1` [Compound 120, 4-({2-chloro-3-[(1S,4S)-2-oxa-5-azabicyclo[2.2.1]heptane-5-carbonyl]phenyl}amino)-3-cyclopropyl-N—[imidazolidin-2-ylidene]benzamide], the EC50 stood at 19.5 nM.

Turning to `O=C(N=C1NCCN1)c1ccc(Nc2cccc(C(=O)N3CCOC(C(F)(F)F)C3)c2Cl)c(C2CC2)c1` (stereo not drawn) [Compound 121, 4-({2-chloro-3-[2-(trifluoromethyl)morpholine-4-carbonyl]phenyl}amino)-3-cyclopropyl-N—[imidazolidin-2-ylidene]benzamide], the EC50 came out at 5.1 nM.

Take `O=C(N=C1NCCN1)c1ccc(Nc2cccc(C(=O)N3CCOCC3C(F)(F)F)c2Cl)c(C2CC2)c1` (stereo not drawn) [Compound 122, 4-({2-chloro-3-[3-(trifluoromethyl)morpholine-4-carbonyl]phenyl}amino)-3-cyclopropyl-N—[imidazolidin-2-ylidene]benzamide]: the EC50 stood at 7.8 nM.

`CC1(NC(=O)c2ccnc(Nc3ccc(C(=O)N=C4NCCN4)cc3C3CC3)c2Cl)CC1` [Compound 123, 3-chloro-2-[(2-cyclopropyl-4-{[imidazolidin-2-ylidene]carbamoyl}phenyl)amino]-N-(1-methylcyclopropyl)pyridine-4-carboxamide]: the EC50 amounted to 83 nM.

`CC1(NC(=O)c2cccc(Nc3c(F)cc(C(=O)N=C4NCCN4)cc3C3CCCO3)c2)CC1` (stereo not drawn) [Compound 125, 3-fluoro-N—[imidazolidin-2-ylidene]-4-({3-[(1-methylcyclopropyl)carbamoyl]phenyl}amino)-5-(oxolan-2-yl)benzamide]: the EC50 is 19.1 nM.

As to `N#CC1(NC(=O)c2cccc(Nc3c(F)cc(C(=O)N=C4NCCN4)cc3C3CC3)c2)CC1` [Compound 127, 4-({3-[(1-cyanocyclopropyl)carbamoyl]phenyl}amino)-3-cyclopropyl-5-fluoro-N-[imidazolidin-2-ylidene]benzamide], the EC50 came to 101 nM.

On to `CC(C)NC(=O)c1cc(F)cc(Nc2c(F)cc(C(=O)N=C3NCCN3)cc2C2CC2)c1` [Compound 128, 3-cyclopropyl-5-fluoro-4-({3-fluoro-5-[(propan-2-yl)carbamoyl]phenyl}amino)-N-[imidazolidin-2-ylidene]benzamide], for which the EC50 is 13.2 nM.

Regarding `CC1(NC(=O)c2cccc(Nc3c(F)cc(C(=O)N=C4NCCN4)cc3C3CC3)c2Cl)CC1` [Compound 129, 4-({2-chloro-3-[(1-methylcyclopropyl)carbamoyl]phenyl}amino)-3-cyclopropyl-5-fluoro-N-[imidazolidin-2-ylidene]benzamide], the EC50 worked out at 4.3 nM.

Consider `CC(C)NC(=O)c1cccc(Nc2c(F)cc(C(=O)N=C3NCCN3)cc2C2CC2)c1F` [Compound 130, 3-cyclopropyl-5-fluoro-4-({2-fluoro-3-[(propan-2-yl)carbamoyl]phenyl}amino)-N-[imidazolidin-2-ylidene]benzamide], for which the EC50 is 7.3 nM.

For the compound `CC(C)NC(=O)c1cccc(Nc2cc(F)c(C(=O)N=C3NCCN3)cc2C2CC2)c1` [Compound 131, 5-cyclopropyl-2-fluoro-N-[imidazolidin-2-ylidene]-4-({3-[(propan-2-yl)carbamoyl]phenyl}amino)benzamide], the EC50 was 77.9 nM.

For the compound `CC1(NC(=O)c2cccc(Nc3ccc(C(=O)N=C4NCCN4)cc3C(C)(C)C)c2Cl)CC1` [Compound 132, 3-tert-butyl-4-({2-chloro-3-[(1-methylcyclopropyl)carbamoyl]phenyl}amino)-N-[imidazolidin-2-ylidene]benzamide], the EC50 worked out at 23.6 nM.

As for `O=C(N=C1NCCN1)c1cc(F)c(Nc2cccc(C(=O)N3CCOCC3)c2Cl)c(C2CCOC2)c1` (stereo not drawn) [Compound 134, 4-{[2-chloro-3-(morpholine-4-carbonyl)phenyl]amino}-3-fluoro-N-[imidazolidin-2-ylidene]-5-(oxolan-3-yl)benzamide], the EC50 turned out to be 39.2 nM.

As for `CC1(NC(=O)c2cccc(Nc3c(F)cc(C(=O)N=C4NCCN4)cc3C3CCCO3)c2Cl)CC1` (stereo not drawn) [Compound 135, 4-({2-chloro-3-[(1-methylcyclopropyl)carbamoyl]phenyl}amino)-3-fluoro-N-[imidazolidin-2-ylidene]-5-(oxolan-2-yl)benzamide], the concentration giving a half-maximal response (EC50) turned out to be 28.7 nM.

Turning to `CC1(NC(=O)c2ccnc(Nc3c(F)cc(C(=O)N=C4NCCN4)cc3C3CC3)c2Cl)CC1` [Compound 136, 3-chloro-2-[(2-cyclopropyl-6-fluoro-4-{[imidazolidin-2-ylidene]carbamoyl}phenyl)amino]-N-(1-methylcyclopropyl)pyridine-4-carboxamide], the EC50 worked out at 32 nM.

As to `CC1(NC(=O)c2cccc(Nc3ccc(C(=O)N=C4NCCN4)cc3C3CCCO3)c2Cl)CC1` (stereo not drawn) [Compound 137, 4-({2-chloro-3-[(1-methylcyclopropyl)carbamoyl]phenyl}amino)-N-[imidazolidin-2-ylidene]-3-(oxolan-2-yl)benzamide], the EC50 was determined as 204 nM.

`CC(C)NC(=O)c1cc(F)cc(Nc2ccc(C(=O)N=C3NCCN3)cc2C2CC2)c1F` [Compound 138, 3-[(2-cyclopropyl-4-{[imidazolidin-2-ylidene]carbamoyl}phenyl)amino]-2,5-difluoro-N-(propan-2-yl)benzamide]: the EC50 was 233 nM.

Consider `CC1(NC(=O)c2cc(F)cc(Nc3ccc(C(=O)N=C4NCCN4)cc3C3CC3)c2F)CC1` [Compound 139, 3-[(2-cyclopropyl-4-{[imidazolidin-2-ylidene]carbamoyl}phenyl)amino]-2,5-difluoro-N-(1-methylcyclopropyl)benzamide], for which the EC50 came out at 152 nM.

In the case of `CC1(NC(=O)c2cccc(Nc3ccc(C(=O)N=C4NCCN4)cc3C3CCCO3)c2)CC1` (stereo not drawn) [Compound 140, N-[imidazolidin-2-ylidene]-4-({3-[(1-methylcyclopropyl)carbamoyl]phenyl}amino)-3-(oxolan-2-yl)benzamide], the EC50 came to 227 nM.

Take `N#CC1(C(=O)Nc2cccc(Nc3ccc(C(=O)N=C4NCCN4)cc3C3CC3)c2)CC1` [Compound 141, 4-{[3-(1-cyanocyclopropaneamido)phenyl]amino}-3-cyclopropyl-N-[imidazolidin-2-ylidene]benzamide]: the EC50 came out at 150 nM.

Take `O=C(N=C1NCCN1)c1cc(F)c(Nc2cccc(C(=O)N3CCOCC3C(F)(F)F)c2)c(C2CC2)c1` (stereo not drawn) [Compound 142, 3-cyclopropyl-5-fluoro-N-[imidazolidin-2-ylidene]-4-({3-[3-(trifluoromethyl)morpholine-4-carbonyl]phenyl}amino)benzamide]: the EC50 came out at 41.4 nM.

In the case of `CC1(NC(=O)c2cccc(Nc3c(F)cc(C(=O)N=C4NCCN4)cc3C3CC3)c2F)CC1` [Compound 143, 3-cyclopropyl-5-fluoro-4-({2-fluoro-3-[(1-methylcyclopropyl)carbamoyl]phenyl}amino)-N-[imidazolidin-2-ylidene]benzamide], the EC50 was determined as 59.7 nM.

Consider `O=C(N=C1NCCN1)c1cc(F)c(Nc2cccc(C(=O)N3CCOC(C(F)(F)F)C3)c2)c(C2CC2)c1` (stereo not drawn) [Compound 144, 3-cyclopropyl-5-fluoro-N-[imidazolidin-2-ylidene]-4-({3-[2-(trifluoromethyl)morpholine-4-carbonyl]phenyl}amino)benzamide], for which the EC50 came to 48.1 nM.

Turning to `O=C(N=C1NCCN1)c1cc(F)c(Nc2cccc(C(=O)N3CCOCC3)c2)c(C2CCCO2)c1` (stereo not drawn) [Compound 145, 3-fluoro-N-[imidazolidin-2-ylidene]-4-{[3-(morpholine-4-carbonyl)phenyl]amino}-5-(oxolan-2-yl)benzamide], the EC50 is 475 nM.

Take `CC1(NC(=O)c2cccc(Nc3ncc(C(=O)N=C4NCCN4)cc3C3CC3)c2Cl)CC1` [Compound 146, 6-({2-chloro-3-[(1-methylcyclopropyl)carbamoyl]phenyl}amino)-5-cyclopropyl-N-[imidazolidin-2-ylidene]pyridine-3-carboxamide]: the EC50 turned out to be 253 nM.

With `CC1(NC(=O)c2ccnc(Nc3c(F)cc(C(=O)N=C4NCCN4)cc3C3CC3)c2F)CC1` [Compound 147, 2-[(2-cyclopropyl-6-fluoro-4-{[imidazolidin-2-ylidene]carbamoyl}phenyl)amino]-3-fluoro-N-(1-methylcyclopropyl)pyridine-4-carboxamide], the EC50 stood at 99.4 nM.

As for `CC(C)NC(=O)c1cc(F)cc(Nc2ccc(C(=O)N=C3NCCN3)cc2C2CC2)c1C1CC1` [Compound 148, 2-cyclopropyl-3-[(2-cyclopropyl-4-{[imidazolidin-2-ylidene]carbamoyl}phenyl)amino]-5-fluoro-N-(propan-2-yl)benzamide], the EC50 was found to be 347 nM.
